Experimental data from patent US20220033734A1, “FABRIC CONDITIONER COMPOSITIONS” (Conopco, Inc., d/b/a UNILEVER, priority 2018, published 2022).

Test system: Gram-negative non-fermenting bacteria: B. cepacia, P. aeruginosa, Strenotrophomonas sp
Assay: Modified challenge test in fabric conditioner, Total Viable Count pour plate: Gram-negative non-fermenting bacteria
Format: cell-based
Settings: overall statement on the challenge tests of Tables 3 and 4
Procedure: Water was heated to ˜45° C., the Cetearyl alcohol was added followed by the minors. A premix of melted quaternary ammonium active was then added and mixed. The formulation was then cooled to ˜35° C. and any remaining minors added.
Itaconic acid, lactic acid and citric acid were purchased from Sigma-Aldrich. Samples of unpreserved fabric conditioner were dosed with itaconic acid, citric acid or lactic acid separately, according to Tables 3 and 4. Each dosed product was adjusted to pH 5 using 50% sodium hydroxide (Sigma-Aldrich). An unpreserved sample was kept as a control.
A modified challenge test method was performed on samples as defined in […]. The microbial compositions comprising the bacteria listed in Tables 2 and 3 were produced with an inoculum level of 5×10^7 CFU/G in sodium chloride.
The microbial compositions were added to each fabric conditioner formulation at a ratio of 1:10 (by weight) microbial composition to fabric conditioner formulation. […]
Both the inoculum level and the level of microorganism within each sample was quantified using a Total Viable Count (TVC) pour plate method after contact times as indicated in data tables. […] Visible colonies were counted with the aid of a Quebec Colony Counter and recorded for analysis against the challenge test criteria.

## C=C(CC(=O)O)C(=O)O [itaconic acid]
  Preservation performance compared with other systems: out performed citric acid, lactic acid and unpreserved systems
